Experimental findings from ChEMBL document CHEMBL5030546, “Synthesis of thiocolchicine amine derivatives and evaluation of their antiproliferative activity” (Bioorg Med Chem Lett, 2021) are described below.

Molecules are shown by their SMILES.

In data set [1] the test system is A549. Briefly: cells. The data set is classed as functional, cell-based. Conditions: Homo sapiens, A549, 72 h.
Description: Antiproliferative activity against human A549 cells assessed as inhibition of cell proliferation incubated for 72 hrs by SRB assay
In data set [2] the test system is MCF7. Briefly: cells. In kind it is functional, cell-based. Conditions: Homo sapiens, MCF7, 72 h.
Description: Antiproliferative activity against human MCF7 cells assessed as inhibition of cell proliferation incubated for 72 hrs by SRB assay
Data set [3] relates to LoVo. Briefly: cells. The data set is classed as functional, cell-based. Conditions: Homo sapiens, 72 h.
Description: Antiproliferative activity against human LoVo cells assessed as inhibition of cell proliferation incubated for 72 hrs by SRB assay
A short description of data set [4]: cells. The data set is classed as functional, cell-based. As to conditions: Homo sapiens, LoVo/DX, 72 h.
Description: Antiproliferative activity against human Lovo/DX cells assessed as inhibition of cell proliferation incubated for 72 hrs by SRB assay
Data set [5] has as its system BALB/3T3. In words: Cytotoxicity against mouse BALB/3T3 cells assessed as reduction in cell viability incubated for 72 hrs by SRB assay. In kind it is ADME, cell-based. As to conditions: BALB/3T3, 72 h. On the technique in general: The SRB assay estimates cell density from bound dye.
Data set [6] in a line: Resistance index, ratio of IC50 for human LoVo/DX cells to IC50 for human LoVo cells. In kind it is functional.
Data set [7] in a line: Selectivity index, ratio of IC50 for mouse BALB/3T3 cells to IC50 for human A549 cells. The data set is classed as toxicity. As to conditions: BALB/3T3 cells versus A549 cells, read-out: Ratio IC50.
Data set [8] can be described thus: Selectivity index, ratio of IC50 for mouse BALB/3T3 cells to IC50 for human MCF7 cells. The data set is classed as toxicity. As to conditions: BALB/3T3 cells versus MCF7 cells, read-out: Ratio IC50.
The nature of data set [9]: Selectivity index, ratio of IC50 for mouse BALB/3T3 cells to IC50 for human LoVo cells. The data set is classed as toxicity. As to conditions: BALB/3T3 cells versus LoVo cells, read-out: Ratio IC50.
Data set [10] is described as follows: Selectivity index, ratio of IC50 for mouse BALB/3T3 cells to IC50 for human LoVo/DX cells. The data set is classed as toxicity. As to conditions: BALB/3T3 cells versus LoVo/DX cells, read-out: Ratio IC50.

In general, IC50 refers to the midpoint of a concentration-inhibition curve. With `CCN[C@H]1CCc2cc(OC)c(OC)c(OC)c2-c2ccc(SC)c(=O)cc21`, the 50% inhibitory concentration (IC50) in [1] came to 10.8 nM; in data set [2], 10.3 nM; in [3] it was 6.5 nM; in data set [4], 54.9 nM; in data set [5], 10.2 nM. Also, the “Ratio IC50” value in [6] is 8.5.
On to `COc1cc2c(c(OC)c1OC)-c1ccc(SC)c(=O)cc1[C@@H](NCc1ccc(F)cc1)CC2`, for which the IC50 in data set [1] worked out at 9.6 nM; in [2] it was 11.2 nM; in data set [3], 7.6 nM; in data set [4] it was 33.2 nM; in data set [5], 11.7 nM. Moreover, the “Ratio IC50” value in data set [6] is reported as 4.4.
In the case of `CCCC(C)CN[C@H]1CCc2cc(OC)c(OC)c(OC)c2-c2ccc(SC)c(=O)cc21` (stereo partly specified), the IC50 in [1] came to 11 nM; in data set [2] it was 17.8 nM; in [3] it was 12 nM; in [4] it was 70.2 nM; in [5], 78.5 nM. Further, the “Ratio IC50” value in [6] turned out to be 5.8.
Consider `COc1cc2c(c(OC)c1OC)-c1ccc(SC)c(=O)cc1[C@@H](NCc1ccncc1)CC2`, for which the IC50 is 10.9 nM in data set [1]; 9.7 nM in [2]; 7.8 nM in [3]; 56.2 nM in data set [4]; 10.9 nM in data set [5]. Moreover, in [6], the “Ratio IC50” value turned out to be 7.2.
For `COc1cc2c(c(OC)c1OC)-c1ccc(SC)c(=O)cc1[C@@H](NCc1ccccc1O)CC2`, the IC50 in data set [1] worked out at 9.3 nM; in data set [2], 10.3 nM; in [3], 9.4 nM; in [4], 41.7 nM; in [5], 8.8 nM. Also, the “Ratio IC50” value in data set [6] is reported as 4.5.
As to `CCCCCN[C@H]1CCc2cc(OC)c(OC)c(OC)c2-c2ccc(SC)c(=O)cc21`, the IC50 in data set [1] stood at 89.5 nM; in data set [2], 92.7 nM; in [3], 52.8 nM; in [4], 77.8 nM; in data set [5] it was 99.4 nM. Besides, the “Ratio IC50” value in data set [6] is listed as 1.5.
For the molecule `COc1cc(CN[C@H]2CCc3cc(OC)c(OC)c(OC)c3-c3ccc(SC)c(=O)cc32)ccc1O`, the IC50 in data set [1] came to 7.1 nM; in data set [2], 8.2 nM; in data set [3], 53.3 nM; in data set [4] it was 85.6 nM; in data set [5], 385 nM. Besides, the “Ratio IC50” value in [6] worked out at 1.8. The selectivity ratio in data set [7] turned out to be 54.2; in data set [8], 46.9; in data set [9], 7.2; in [10], 4.5.
For the molecule `CCCCN[C@H]1CCc2cc(OC)c(OC)c(OC)c2-c2ccc(SC)c(=O)cc21`, the IC50 in data set [1] is 10.9 nM; in [2] it was 12.2 nM; in [3] it was 8.8 nM; in data set [4] it was 17.9 nM; in [5] it was 11.7 nM. In data set [6], the “Ratio IC50” value turned out to be 2.
As for `COc1ccc(CN[C@H]2CCc3cc(OC)c(OC)c(OC)c3-c3ccc(SC)c(=O)cc32)cc1O`, the IC50 in data set [1] came to 10.8 nM; in [2], 10.3 nM; in [3], 8.8 nM; in data set [4], 69.4 nM; in data set [5] it was 10.8 nM. The “Ratio IC50” value in [6] came to 7.9.
With `COc1cc2c(c(OC)c1OC)-c1ccc(SC)c(=O)cc1[C@@H](NCc1ccc(Cl)cc1)CC2`, the IC50 was 70.5 nM in data set [1]; 73.4 nM in data set [2]; 37 nM in [3]; 64.9 nM in data set [4]; 88.2 nM in [5]. The “Ratio IC50” value in [6] is reported as 1.8.
Consider `COc1cc2c(c(OC)c1OC)-c1ccc(SC)c(=O)cc1[C@@H](NCc1ccc(I)cc1)CC2`, for which the IC50 in data set [1] was found to be 101 nM; in [2], 84.2 nM; in [3], 72.4 nM; in data set [4] it was 234 nM; in [5] it was 119 nM. The “Ratio IC50” value in [6] is listed as 3.2.
`COc1cc2c(c(OC)c1OC)-c1ccc(SC)c(=O)cc1[C@@H](NCCc1ccccc1)CC2`: the IC50 in data set [1] worked out at 10.7 nM; in data set [2] it was 11.4 nM; in data set [3], 10.7 nM; in data set [4], 66.9 nM; in data set [5], 61.2 nM. For the same molecule, the “Ratio IC50” value in data set [6] worked out at 6.2.
On to `COc1cc2c(c(OC)c1OC)-c1ccc(SC)c(=O)cc1[C@@H](NCC(C)C)CC2`, for which the IC50 in [1] was 10.5 nM; in data set [2], 11.3 nM; in data set [3], 8.5 nM; in data set [4], 10.2 nM; in data set [5], 11 nM. In data set [6], the “Ratio IC50” value turned out to be 1.2.
With `COc1cc2c(c(OC)c1OC)-c1ccc(SC)c(=O)cc1[C@@H](NCc1ccccc1)CC2`, the IC50 in [1] stood at 9.6 nM; in data set [2], 10.3 nM; in data set [3] it was 7.9 nM; in [4] it was 13.9 nM; in data set [5] it was 9.8 nM. In [6], the “Ratio IC50” value is on record as 1.8.
Take `CCCN[C@H]1CCc2cc(OC)c(OC)c(OC)c2-c2ccc(SC)c(=O)cc21`: the IC50 in data set [1] came to 11.6 nM; in data set [2], 12 nM; in [3], 8.5 nM; in data set [4], 31.1 nM; in [5], 14.3 nM. Also, in data set [6], the “Ratio IC50” value is listed as 3.7.
For the molecule `CCCCCCN[C@H]1CCc2cc(OC)c(OC)c(OC)c2-c2ccc(SC)c(=O)cc21`, the IC50 in data set [1] is 104 nM; in [2], 109 nM; in data set [3], 83 nM; in data set [4], 72.7 nM; in data set [5], 107 nM. In addition, the “Ratio IC50” value in data set [6] is 0.9.
For the molecule `CCCCCCCCN[C@H]1CCc2cc(OC)c(OC)c(OC)c2-c2ccc(SC)c(=O)cc21`, the IC50 in data set [1] came to 1010 nM; in data set [2] it was 1120 nM; in [3], 903 nM; in [4], 693 nM; in data set [5], 1040 nM. For the same molecule, in data set [6], the “Ratio IC50” value worked out at 0.8.
On to `COc1cc2c(c(OC)c1OC)-c1ccc(SC)c(=O)cc1[C@@H](NCCC(C)C)CC2`, for which the IC50 in [1] is 13.1 nM; in [2] it was 12 nM; in data set [3] it was 8.4 nM; in data set [4], 9.4 nM; in [5], 13.3 nM. The “Ratio IC50” value in data set [6] was 1.
`COc1cc2c(c(OC)c1OC)-c1ccc(SC)c(=O)cc1[C@@H](NC/C=C/c1ccccc1)CC2`: the IC50 in [1] was 95 nM; in data set [2], 102 nM; in data set [3] it was 79.2 nM; in data set [4], 210 nM; in data set [5], 98.6 nM. Moreover, the “Ratio IC50” value in data set [6] was found to be 2.7.
Consider `COc1cc2c(c(OC)c1OC)-c1ccc(SC)c(=O)cc1[C@@H](NCc1cccc(CN[C@H]3CCc4cc(OC)c(OC)c(OC)c4-c4ccc(SC)c(=O)cc43)n1)CC2`, for which the IC50 in data set [1] turned out to be 47.3 nM; in [2] it was 7.7 nM; in data set [3], 27.9 nM; in data set [4], 400 nM; in data set [5], 50.3 nM. For the same molecule, the “Ratio IC50” value in data set [6] is 14.3.
Turning to `COc1cc2c(c(OC)c1OC)-c1ccc(SC)c(=O)cc1[C@@H](NCc1ccc(C)cc1)CC2`, the IC50 in data set [1] was 83.4 nM; in data set [2] it was 100 nM; in [3] it was 47.6 nM; in data set [4] it was 52.3 nM; in data set [5], 85.4 nM. Further, the “Ratio IC50” value in data set [6] is recorded as 1.1.
In the case of `CCCCCCCCCCCCN[C@H]1CCc2cc(OC)c(OC)c(OC)c2-c2ccc(SC)c(=O)cc21`, the IC50 in [1] worked out at 152 nM; in data set [2], 719 nM; in data set [3] it was 453 nM; in [4], 1980 nM; in data set [5], 1070 nM. Further, the “Ratio IC50” value in data set [6] is on record as 4.4.
For `COc1cc2c(c(OC)c1OC)-c1ccc(OC)c(=O)cc1[C@@H](NC(C)=O)CC2` [COLCHICINE], the IC50 in [1] was 19.3 nM; in data set [3] it was 12.7 nM; in [4], 967 nM; in [5], 82.3 nM.
Regarding `COc1cccc2c1C(=O)c1c(O)c3c(c(O)c1C2=O)C[C@@](O)(C(=O)CO)C[C@@H]3O[C@H]1C[C@H](N)[C@H](O)[C@H](C)O1` [DOXORUBICIN], the IC50 in data set [1] is 149 nM; in data set [2], 146 nM; in data set [3], 71 nM; in data set [4] it was 3960 nM; in data set [5] it was 315 nM. Also, in data set [6], the “Ratio IC50” value is listed as 56.
